# Results as given in US8575215B2, “Treatment of neurodegenerative and cardiovascular disorders” (priority 2001, dated 2013).
# How the values were obtained:
# [1] = test system: cerebellar granule neurons (CGN) culture; test: NO-induced cell death on cultured neurons; assay type: cell-based; settings: Neuron, cell death induced by nitric oxide, concentration-dependent, read-out: IC50 for blocking nitric oxide-induced neuron cell death
# Protocol: Efficacy of caffeic acid phenethyl ester on treating neurodegenerative disorders as well as other disorders related to NO-induced cell death was assessed by testing its ability to block NO-induced cell death on cultured neurons according to a method described in Du, et al., Proc Natl Acad Sci, 2001, 98, 14669-14674.
# [2] = test system: cerebellar granule neurons (CGN) culture; test: 6-hydroxydopamine-induced neurotoxicity on cultured neurons; assay type: cell-based; settings: 6-hydroxydopamine used to induce neurotoxicity
# [3] = test system: TH-positive neurons in the substantia nigra pars compacta (SNpc); test: MPTP mouse model, stereological count of TH-positive neurons in SNpc; assay type: in vivo, mice
# Protocol: Caffeic acid phenethyl ester was evaluated for its efficacy in treating a neurodegenerative disorder in mice. Three groups of eight-week-old male C57B1/6 mice (Taconic Farms Inc., Germantown, N.Y.), 5-7 per group, were used. A group of mice were administered for 9 days with caffeic acid phenethyl ester (5 or 20 mg/kg/day in 10% alcohol by oral gavage, or 40 mg/kg/day in 10% alcohol by intraperitoneal injection). As a control, a second group of mice were administered with 10% alcohol free of caffeic acid phenethyl ester. These two groups of mice then received four intraperitoneal injections of 1-methyl-4-phenyl-1,2,3,6-tetrahydropyridine (“MPTP”)-HCl (20 mg/kg of free base) in saline at 2 hour intervals in a single day, as described in Liberatore, et al., Nat Med, 1999, 5, 1403-1409. Seven days after the last administration of MPTP, the mice were anesthetized by halothane inhalation. […] They were then incubated with rabbit polyclonal anti-tyrosine hydroxylase (anti-TH) antibody (1:2,500, CALBIOCHEM, La Jolla, Calif.), goat biotinylated-conjugated polyclonal anti-rabbit antibody (1:250; Vector Laboratories, Burlingame, Calif.), horseradish-peroxidase conjugated avidin/biotin complex (VECTASTAIN ABC Reagent, Vector Laboratories), and successively exposed to diaminobenzidine for TH-immunohistochemistry analysis and stereological quantification of TH-positive neurons. […]
# [4] = test system: striatal levels of dopamine, DOPAC and HVA; test: MPTP mouse model, striatal levels of dopamine and metabolites by HPLC; assay type: in vivo, mice; settings: 40 mg/kg intraperitoneally, 48 hours after MPTP
# Protocol: Caffeic acid phenethyl ester was evaluated for its efficacy in treating a neurodegenerative disorder in mice. Three groups of eight-week-old male C57B1/6 mice (Taconic Farms Inc., Germantown, N.Y.), 5-7 per group, were used. A group of mice were administered for 9 days with caffeic acid phenethyl ester (5 or 20 mg/kg/day in 10% alcohol by oral gavage, or 40 mg/kg/day in 10% alcohol by intraperitoneal injection). As a control, a second group of mice were administered with 10% alcohol free of caffeic acid phenethyl ester. These two groups of mice then received four intraperitoneal injections of 1-methyl-4-phenyl-1,2,3,6-tetrahydropyridine (“MPTP”)-HCl (20 mg/kg of free base) in saline at 2 hour intervals in a single day, as described in Liberatore, et al., Nat Med, 1999, 5, 1403-1409. The striatal levels of dopamine and its metabolites, dihydroxyphenylacetic acid (DOPAC) and homovanillic acid (HVA), were also determined by HPLC with electrochemical detector. See, e.g., Du, et al., Proc Natl Acad Sci, 2001, 98, 14669-14674.
# [5] = test system: isolated working rabbit heart; test: Isolated working rabbit heart model of ischaemia; assay type: in vivo; settings: 30 mg/kg intraperitoneal injection, p<0.05
# Protocol: An isolated working rabbit heart model was use to define the cardioprotective effects (function, metabolic and ultrastructure) of caffeic acid phenethyl ester during ischaemia by the method described in Choong, et al., J Cardiovasc Surg (Torino), 1993 October, 34(5):423-433. More specifically, hearts (n=7 for each group) were arrested with and exposed to reinfusion (45 min) throughout the ischaemic period with a cold (4° C.) cardioplegic solution. […] The release of lactate dehydrogenase decreased during 40-minute ischaemic arrest (55.14+/-8.65 vs 19.33+/-7.4 IU/L perfusate for control and treatment, respectively; p<0.05). See […] et al., J Cardiovasc Pharmacol, 1999 October; 34(4):604-611.
compound,measurement,setting,value
O=C(/C=C/c1ccc(O)c(O)c1)OCCc1ccccc1 [caffeic acid phenethyl ester],IC50,[1],~1000 nM
same,neuroprotective effect against 6-hydroxydopamine-induced neurotoxicity,[2],neuroprotective effect
same,"number of TH-positive neurons in SNpc, as compared with saline-only mice","[3]; C57B1/6 mice, 5 or 20 mg/kg/day oral or 40 mg/kg/day i.p. for 9 days, then MPTP 4x20 mg/kg, 7 days after MPTP, MPTP control approximately 49%",up to 100%
same,effect of compound alone on number of TH-positive neurons,"[3]; treatment alone for nine days, no MPTP",did not significantly alter
same,MPTP-induced reduction of striatal HVA level,[4]; MPTP control decreased by 35%,16%
same,MPTP-induced reduction of striatal DOPAC level,[4]; MPTP control decreased by 46%,−2%
same,MPTP-induced reduction of striatal dopamine level,[4]; MPTP control decreased by 62%,3%
same,postischaemic recovery of cardiac output,"[5]; n=7, control 71.48+/−9.66%",90.83+/−3.2%
same,release of lactate dehydrogenase during 40-minute ischaemic arrest,[5]; control 55.14+/−8.65,19.33+/−7.4 IU/L perfusate
